From patent US20090240070A1, “WHITENING DERMATOLOGICAL PREPARATIONS” (SHOWA DENKO K.K., priority 2006, published 2009)

Legend:
[1] = 0.5% by mass solution, 0.1 ml on minipig skin, 24 hours, 37° C.; HPLC
Procedure: The above test articles, each 0.5% by mass, were dissolved separately in Dulbecco's PBS (−) containing 10% bovine serum albumin to give test article solutions.
2-cm square skin pieces of minipig (Charles River Laboratories Inc. (United States of America)) were placed in the Netwell (manufactured by Corning Incorporated), and assay rings (Teflon® rings with a center opening) on which a silicon sealant had been applied were pressed and fixed to the epidermis of the skin. Subsequently, 2 ml of a skin culture medium (TOYOBO CO., LTD.) was added to a multiwell plate, and the Netwell was set such that skin lower portions would be soaked. Each of the test article solutions, 0.1 ml, was slowly poured into the opening of assay ring. When no leakage was confirmed, the Netwell was sealed with multiplate seals and were allowed to stand in an incubator at 37° C. and 5% carbon dioxide. […]
The test articles in the tissue extracts were determined by HPLC.
The protein in the tissue extracts was determined by the Lowry method.
400 μl of the reagent 4 was added to a sample tube containing 20 μl of the tissue extract or the standard sample solution, followed by mixing. […] The absorbance at 750 nm was measured with a spectrophotometer, and the protein concentration in the tissue extract was determined using a calibration curve obtained with the standard sample.

[2] = tested on: culture skin model (MEL-300) containing melanin cells; settings: for Amount of melanin synthesized (% relative to the control): 0.5% by mass test article solution, 0.1 ml, 11 days of incubation, control = 100%; for inhibition of melanin synthesis compared with tranexamic acid (in words): conclusion from Table 4
Procedure: The above test articles, each 0.5% by mass, were dissolved separately in sterilized water containing 10% bovine serum albumin and 1% DMSO to give test article solutions.
The skin model was cultured for 11 days using the supplied culture medium LLMM. Each article was tested two times. The culture medium was changed every other day during the incubation.
After 11 days of incubation, the skin model was washed and was measured for the cell survival rate by colorimetry (570 nm) with the Alamar Blue reagent (manufactured by Molecular Probe). Thereafter, the melanin synthesized in the skin model was determined in the following manner.
The skin model was soaked overnight in a liquid which consisted of 0.2 ml of a 10 mM tris buffer solution (pH 6.8) containing 1% SDS and 0.05 mM EDTA, and 0.02 ml of 5 mg/ml Proteinase K. On the next day, 0.02 ml of 5 mg/ml Proteinase K was added, followed by heating at 45° C. for 4 hours. Consequently, the skin model was dissolved. The lysate was made alkaline with 0.025 ml of a 500 mM sodium carbonate solution, and was combined with 5 μl of 30% hydrogen peroxide, followed by heating at 80° C. for 30 minutes to perform reaction. To prepare a standard sample solution, 0.24 ml of a melanin solution of known concentration was combined with 0.025 ml of a 500 mM sodium carbonate solution and 5 μl of 30% hydrogen peroxide, followed by heating at 80° C. for 30 minutes to perform reaction.
The standard sample solution and the lysate obtained were each cooled and extracted with 0.1 ml of chloroform/methanol (2/1). The aqueous phase was measured for the absorbance at 405 nm, and the melanin synthesized was determined using a calibration curve obtained with the standard sample.

Row | Determined value, amount of test article in skin tissue extract [1] [μmol/mg skin protein] | Compound | Amount of melanin synthesized (% relative to the control) [2] [%] | inhibition of melanin synthesis compared with tranexamic acid (in words) [2]
1 | 0.034 | NC[C@H]1CC[C@H](C(=O)O)CC1 [a, Tranexamic acid, reference compound] | 99 | 
2 |  | Cc1c(C)c2c(c(C)c1OC(=O)[C@H]1CC[C@H](CN)CC1)CCC(C)(CCCC(C)CCCC(C)CCCC(C)C)O2.Cl (mixture of isomers) [b, dl-α-Tocopherol tranexamate hydrochloride] | 60 | inhibit the melanin synthesis more effectively than tranexamic acid
3 |  | Cc1c(OC(=O)[C@H]2CC[C@H](CN)CC2)cc2c(c1C)OC(C)(CCCC(C)CCCC(C)CCCC(C)C)CC2.Cl (mixture of isomers) [c, dl-γ-Tocopherol tranexamate hydrochloride] | 44 | inhibit the melanin synthesis more effectively than tranexamic acid
